Like-named read-outs stand apart in the source and are kept apart here.
Experiment: Plasma concentration versus time of Compound I and metabolite Compound III in patients dosed QD or BID with Form B of Compound II plus fulvestrant
Assay type: in vivo, human
Conditions: human, plasma, oral; for concentration at 8 h: Day 1, 8.0 h; for concentration at 10 h: Day 1, 10.0 h; for concentration at 12 h: Day 1, 12.0 h; for concentration at 8 day: Day 8; for concentration at 15 day: Day 15; for concentration at 22 day: Day 22
Description: Patients were enrolled into 1 of 2 parallel, independently operating, dose-escalation dosing cohorts with Form B of Compound II administered continuously either once daily (QD) or twice daily (BID) with food with fixed-dose fulvestrant (intramuscularly every 14 days for the first three injections and then every 28 days). Pre- or perimenopausal patients also received goserelin for the duration of study treatment. A […] agonist was started at least 28 days before the first dose of Form B, and those patients who were taking another LHRH agonist were switched to goserelin on Day 1. Patients were split into […] cohorts providing once a day (QD) dosing of 200 mg, 300 mg, 400 mg, 500 mg, or 650 mg of Form B, or twice a day (BID) dosing of 100 mg, 150 mg, or 200 mg of Form B. The second dose in BID cohorts was not administered in the evening until at least 12 hours after the initial morning dose of Form B. The dosing cohorts for Form B of Compound II are provided in Table 1.
Blood samples were collected at the following time points relative to the morning dose of Form B at Day 1 and at Day 29: pre-dose (0 hour) and 1, 2, 3, 4, 6, 8, 10, 12 (prior to the evening dose in the BID cohorts), and 24 (prior to the next day's morning dose) hours after dosing. A 5-minute time window was allowed for samples collected between the predose and 3 hours after Form B dosing. A 15-minute window was allowed for samples collected between 4 to 12 hours after Form B dosing. A 1-hour window was allowed for the sample collected 24 hours after Form B dosing. Blood samples for Compound I PK trough levels were collected pre-dose at Day 8, Day 15, and Day 22 prior to the morning administration of Compound I. Plasma concentrations of Compound I and its metabolite, Compound III, were measured using validated methods.
Analysis of plasma concentration versus time data for calculation of standard pharmacokinetic (PK) parameters following oral administration was conducted using Phoenix WinNonlin version 6.3 using actual blood sampling times.

[1] = 100 mg, 100 mg BID of Form B, Mean, read-out: Compound III Concentration
[2] = 100 mg, 100 mg BID of Form B, Median, read-out: Compound III Concentration
[3] = 100 mg, Cohort 6, 100 mg BID of Form B, read-out: Trough Compound III Concentration, Median
[4] = 100 mg, Cohort 6, 100 mg BID of Form B, read-out: Trough Compound III Concentration, Min
[5] = 400 mg, Cohort 3, 400 mg QD of Form B, read-out: Trough Compound III Concentration, Max
[6] = 400 mg, Cohort 3, 400 mg QD of Form B, read-out: Trough Compound III Concentration, Mean
[7] = 400 mg, Cohort 3, 400 mg QD of Form B, read-out: Trough Compound III Concentration, Median
[8] = 500 mg, Cohort 4, 500 mg QD of Form B, read-out: Trough Compound III Concentration, Max
[9] = 500 mg, Cohort 4, 500 mg QD of Form B, read-out: Trough Compound III Concentration, Mean
[10] = 500 mg, Cohort 4, 500 mg QD of Form B, read-out: Trough Compound III Concentration, Median
[11] = 500 mg, Cohort 4, 500 mg QD of Form B, read-out: Trough Compound III Concentration, Min

A concentration at 0 h (100 mg, 100 mg BID of Form B, Day 1, 0.0 h, Mean, read-out: Compound III Concentration) of 0 ng/mL, a concentration at 0 h (100 mg, 100 mg BID of Form B, Day 1, 0.0 h, Median, read-out: Compound III Concentration) of 0 ng/mL and a concentration at 1 h (100 mg, 100 mg BID of Form B, Day 1, 1.0 h, Mean, read-out: Compound III Concentration) of 0.248 ng/mL were found for O=C1NCC2(CCCCC2)n2c1cc1cnc(Nc3ccc(N4CCNCC4)cn3)nc12 [Compound III, 2′-((5-(piperazin-1-yl)pyridin-2-yl)amino)-7′,8′-dihydro-6′H-spiro[cyclohexane-1,9′-pyrazino[1′,2′:1,5]pyrrolo[2,3-d]pyrimidin]-6′-one] in this work. It also gave a concentration at 1 h (100 mg, 100 mg BID of Form B, Day 1, 1.0 h, Median, read-out: Compound III Concentration) of 0 ng/mL, a concentration at 2 h (100 mg, 100 mg BID of Form B, Day 1, 2.0 h, Mean, read-out: Compound III Concentration) of 1.04 ng/mL and a concentration at 2 h (100 mg, 100 mg BID of Form B, Day 1, 2.0 h, Median, read-out: Compound III Concentration) of 1 ng/mL. It also gave a concentration at 3 h (100 mg, 100 mg BID of Form B, Day 1, 3.0 h, Mean, read-out: Compound III Concentration) of 1.41 ng/mL, a concentration at 3 h (100 mg, 100 mg BID of Form B, Day 1, 3.0 h, Median, read-out: Compound III Concentration) of 1.42 ng/mL and a concentration at 4 h (100 mg, 100 mg BID of Form B, Day 1, 4.0 h, Mean, read-out: Compound III Concentration) of 1.25 ng/mL. For the same molecule, the concentration at 4 h (100 mg, 100 mg BID of Form B, Day 1, 4.0 h, Median, read-out: Compound III Concentration) was 1.13 ng/mL, the concentration at 6 h (100 mg, 100 mg BID of Form B, Day 1, 6.0 h, Mean, read-out: Compound III Concentration) was 0.471 ng/mL and the concentration at 6 h (100 mg, 100 mg BID of Form B, Day 1, 6.0 h, Median, read-out: Compound III Concentration) was 0.382 ng/mL. For the same molecule, the concentration at 8 h [1] was 0.219 ng/mL, the concentration at 8 h [2] was 0 ng/mL and the concentration at 10 h [1] was 0 ng/mL. For the same molecule, the concentration at 10 h [2] was 0 ng/mL, the concentration at 12 h [1] was 0.0917 ng/mL and the concentration at 12 h [2] was 0 ng/mL. It also gave a concentration at 8 day [3] of 0.481 ng/mL, a concentration at 8 day [4] of 0 ng/mL and a concentration at 15 day [3] of 0.895 ng/mL. It also gave a concentration at 15 day [4] of 0 ng/mL, a concentration at 22 day [3] of 0.403 ng/mL and a concentration at 22 day [4] of 0 ng/mL. For the same molecule, the concentration at 0 h (150 mg, 150 mg BID of Form B, Day 1, 0.0 h, Median, read-out: Compound III Concentration) was 0 ng/mL, the concentration at 1 h (150 mg, 150 mg BID of Form B, Day 1, 1.0 h, Median, read-out: Compound III Concentration) was 1.52 ng/mL and the concentration at 8 day [5] was 0.702 ng/mL. The concentration at 8 day [6] was 0.406 ng/mL, the concentration at 8 day [7] was 0.515 ng/mL and the concentration at 15 day [5] was 0.665 ng/mL. It also gave a concentration at 15 day [6] of 0.435 ng/mL, a concentration at 15 day [7] of 0.64 ng/mL and a concentration at 22 day [5] of 0.935 ng/mL. For the same molecule, the concentration at 22 day [6] was 0.729 ng/mL, the concentration at 22 day [7] was 0.736 ng/mL and the concentration at 22 day (400 mg, Cohort 3, 400 mg QD of Form B, read-out: Trough Compound III Concentration, Min) was 0.515 ng/mL. The concentration at 8 day [8] was 1.98 ng/mL, the concentration at 8 day [9] was 1.71 ng/mL and the concentration at 8 day [10] was 1.62 ng/mL. For the same molecule, the concentration at 8 day [11] was 1.53 ng/mL, the concentration at 15 day [8] was 2.66 ng/mL and the concentration at 15 day [9] was 2.07 ng/mL. The concentration at 15 day [10] was 2.15 ng/mL, the concentration at 15 day [11] was 1.33 ng/mL and the concentration at 22 day [8] was 2.11 ng/mL. It also gave a concentration at 22 day [9] of 1.73 ng/mL, a concentration at 22 day [10] of 1.58 ng/mL and a concentration at 22 day [11] of 1.5 ng/mL. It also gave a concentration at 0 h (500 mg, Cohort 4, 500 mg QD of Form B, Day 29, 0.0 h, read-out: Compound III Concentration, Mean) of 1.76 ng/mL, a concentration at 0 h (500 mg, Cohort 4, 500 mg QD of Form B, Day 29, 0.0 h, read-out: Compound III Concentration, Min) of 1.41 ng/mL and a concentration at 1 h (500 mg, Cohort 4, 500 mg QD of Form B, Day 29, 1.0 h, read-out: Compound III Concentration, Mean) of 2.98 ng/mL. For the same molecule, the concentration at 1 h (500 mg, Cohort 4, 500 mg QD of Form B, Day 29, 1.0 h, read-out: Compound III Concentration, Min) was 2.06 ng/mL, the concentration at 2 h (500 mg, Cohort 4, 500 mg QD of Form B, Day 29, 2.0 h, read-out: Compound III Concentration, Mean) was 4.39 ng/mL and the concentration at 2 h (500 mg, Cohort 4, 500 mg QD of Form B, Day 29, 2.0 h, read-out: Compound III Concentration, Min) was 3.61 ng/mL. It also gave a concentration at 3 h (500 mg, Cohort 4, 500 mg QD of Form B, Day 29, 3.0 h, read-out: Compound III Concentration, Mean) of 5.9 ng/mL, a concentration at 3 h (500 mg, Cohort 4, 500 mg QD of Form B, Day 29, 3.0 h, read-out: Compound III Concentration, Min) of 4.66 ng/mL and a concentration at 4 h (500 mg, Cohort 4, 500 mg QD of Form B, Day 29, 4.0 h, read-out: Compound III Concentration, Mean) of 5.77 ng/mL. For the same molecule, the concentration at 4 h (500 mg, Cohort 4, 500 mg QD of Form B, Day 29, 4.0 h, read-out: Compound III Concentration, Min) was 4.04 ng/mL, the concentration at 6 h (500 mg, Cohort 4, 500 mg QD of Form B, Day 29, 6.0 h, read-out: Compound III Concentration, Mean) was 4.18 ng/mL and the concentration at 6 h (500 mg, Cohort 4, 500 mg QD of Form B, Day 29, 6.0 h, read-out: Compound III Concentration, Min) was 3.55 ng/mL.

— patent US11357779B2 (G1 Therapeutics, Inc., priority 2018, dated 2022)
